Laboratory results taken from article PMC3199943, “Screening the MayBridge Rule of 3 Fragment Library for Compounds That Interact with the Trypanosoma brucei myo-Inositol-3-Phosphate Synthase and/or Show Trypanocidal Activity” (Molecular Biology International, 2011).
Like-named read-outs stand apart in the source and are kept apart here.

Columns and labels:
A549 cells = test: Cytotoxicity against A549 cells, Alamar Blue; type: cell-based; details: Supplementary Table 1, compound 0.5 mM, percentage of controls (n=1); for viability at 500 µM: Homo sapiens, A549, 65 h
Summary of the method: (§1)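 Alamar Blue read-out after a 5 h dye incubation that followed ~65 h compound exposure. Cells: HeLa or A549, 2 × 10^4/well, DMEM + 10% FCS + 2 mM L-Glutamine.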

HeLa cells = test: cells; details: for viability at 500 µM: 65 h
Summary of the method: as §1

TbINO1 = target: T1, TbINO1 (Trypanosoma brucei brucei, UniProt Q5QQ46); test: biochemical; type: binding
T1 sequence (Q5QQ46 1-528): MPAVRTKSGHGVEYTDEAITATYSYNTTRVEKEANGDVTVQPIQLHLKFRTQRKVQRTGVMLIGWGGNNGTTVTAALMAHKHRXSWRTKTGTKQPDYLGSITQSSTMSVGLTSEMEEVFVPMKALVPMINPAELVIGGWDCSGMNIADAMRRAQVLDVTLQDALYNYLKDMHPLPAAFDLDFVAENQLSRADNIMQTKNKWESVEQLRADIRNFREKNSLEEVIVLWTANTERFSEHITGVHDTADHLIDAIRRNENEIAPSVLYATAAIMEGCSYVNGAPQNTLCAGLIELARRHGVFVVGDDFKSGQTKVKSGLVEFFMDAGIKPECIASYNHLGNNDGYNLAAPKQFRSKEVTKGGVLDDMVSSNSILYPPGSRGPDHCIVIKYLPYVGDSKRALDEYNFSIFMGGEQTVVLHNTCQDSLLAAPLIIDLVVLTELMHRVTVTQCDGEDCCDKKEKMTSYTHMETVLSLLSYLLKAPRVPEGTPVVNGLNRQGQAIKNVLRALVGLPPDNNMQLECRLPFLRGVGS

[1] = Homo sapiens, HeLa, read-out: HeLa Cells Alamar Blue
[2] = read-out: Tb Ino1 Tm Shift [˚C]
[3] = Homo sapiens, HeLa, read-out: HeLa Cells Alamar Blue (% survival)
[4] = Supplementary Table 1, compound 1mM, mean ± SD from Boltzman curve fitting, read-out: Tb Ino1 Tm Shift [˚C]

Row | SMILES | viability at 500 µM (A549 cells) [%] | viability at 500 µM (HeLa cells; [1]) [%] | ΔTm at 1000 µM (TbINO1; [2]) [°C] | other results
1 | Cc1ccc[nH]c1=O [compound 17, 3‐methyl‐1,2‐dihydropyridin‐2‐one] | 87.2 | 106 ± 11.4 | 0.81 ± 0.08 | –
2 | OCc1ccncc1 [compound 18, 4‐pyridinylmethanol] | 102 | 104 ± 3.9 | 0.36 ± 0.07 | –
3 | Cc1cccc(O)n1 [compound 19, 6‐methylpyridin‐2‐ol] | 85.6 | 103 ± 7.6 | 0.09 ± 0.08 | –
4 | CC(=O)c1cc[nH]c1 [compound 20, 1-(1H-pyrrol-3-yl)ethan-1-one] | 121 | 102 ± 4.3 | – | viability at 500 µM (HeLa cells; [3]): 102 ± 4.3%; CC50 (HeLa cells; Homo sapiens, HeLa, read-out: HeLa ED50): > 5 mM; ΔTm at 1000 µM (TbINO1; read-out: TbIno1 Tm shift [°C]): 1.88 ± 0.08 °C
5 | OCc1cnccn1 [compound 23, 2‐pyrazinylmethanol] | 75.9 | 77.5 ± 12.3 | 0.27 ± 0.07 | –
6 | Cc1cc(N)n(C)n1 [compound 26, 1,3‐dimethyl‐1H‐pyrazol‐5‐amine] | 70.1 | 85.5 ± 9.4 | 0.54 ± 0.07 | –
7 | O=C(O)c1ccco1 [compound 27, 2‐furoic acid] | 107 | 95.7 ± 9.4 | 0.17 ± 0.06 | –
8 | O=C(O)c1ccoc1 [compound 28, 3-furoic acid] | 111 | 48.2 ± 11.8 | – | viability at 500 µM (HeLa cells; [3]): 48.2 ± 11.8%; ΔTm at 1000 µM (TbINO1; read-out: TbIno1 Tm shift [°C]): 3.72 ± 0.08 °C
9 | Oc1ccc(F)cc1 [compound 29, 4‐fluorophenol] | 88.4 | – | 0.23 ± 0.08 | viability at 500 µM (HeLa cells; Homo sapiens, HeLa, read-out: HeLa Cells Alamar Blue, Supplementary Table 1, compound 0.5 mM, percentage of controls, mean ± SD (n=3) or SE (n=2)): 96.2 ± 7.7%
10 | Cc1ccc(CO)o1 [compound 30, (5-methyl-2-furyl)methanol] | 23.7 | 23.3 ± 18.6 | – | viability at 500 µM (HeLa cells; [3]): 23.3 ± 18.6%; ΔTm at 1000 µM (TbINO1; read-out: TbIno1 Tm shift [°C]): 3.79 ± 0.08 °C
11 | CC1=NNC(=O)CC1 [compound 31, 6‐methyl‐2,3,4,5‐tetrahydropyridazin‐3‐one] | – | – | – | A549 Cells Alamar Blue (A549 cells): 68.2 percentage of controls; HeLa Cells Alamar Blue (HeLa cells; Supplementary Table 1, compound 0.5 mM, percentage of controls, mean ± SD (n=3) or SE (n=2)): 85.4 ± 6.1 percentage of controls; Tb Ino1 Tm Shift [˚C] (TbINO1; Supplementary Table 1, compound 1mM, mean ± SD from Boltzman curve fitting): 0.22 ± 0.07 °C
12 | CN1CCN(C)C1=O [compound 35, 1,3‐dimethylimidazolidin‐2‐one] | 92.7 | 101 ± 6.6 | – | ΔTm at 1000 µM (TbINO1; [4]): 0.04 ± 0.07 °C
13 | CC1CNC(C)CN1 (stereo not shown) [compound 36, 2,5‐dimethylpiperazine] | 76.6 | 91.3 ± 12.1 | 0.18 ± 0.08 | –
14 | O=C(O)[C@H]1CCCN1 [compound 37, D‐proline] | 78.6 | 94.8 ± 10.1 | 0.41 ± 0.06 | –
15 | OCc1nccs1 [compound 38, 1,3‐thiazol‐2‐ylmethanol] | 95 | 99.4 ± 4.1 | 0.18 ± 0.09 | –
16 | Cc1nnc(N)s1 [compound 39, 5‐methyl‐1,3,4‐thiadiazol‐2‐amine] | 72.3 | 105 ± 14.5 | 0.31 ± 0.08 | –
17 | O=C(O)C1CCCO1 (stereo not shown) [compound 42, tetrahydro‐2‐furancarboxylic acid] | 75.1 | 81.9 ± 17 | 0.3 ± 0.08 | –
18 | COC(=O)C1NCCS1 (stereo not shown) [compound 44] | 75.7 | 85.7 ± 19.3 | 0.11 ± 0.06 | viability at 500 µM (HeLa cells; [3]): 108 ± 15.9%; ΔTm at 1000 µM (TbINO1; read-out: TbIno1 Tm shift [°C]): 2.81 ± 0.1 °C
19 | NC1CCSCC1 [compound 45, tetrahydrothiopyran‐4‐ylamine] | 95.6 | 88.6 ± 3.1 | 0.24 ± 0.07 | –

Row | SMILES | viability at 500 µM (A549 cells) [%] | viability at 500 µM (HeLa cells; [1]) [%] | ΔTm at 1000 µM (TbINO1; [2]) [°C] | other results
20 | N#CCc1ccccn1 [compound 46, 2‐(2‐pyridyl)acetonitrile] | 82.6 | 63.2 ± 17.9 | 1.11 ± 0.24 | –
21 | N#Cc1ccc(F)cc1 [compound 51, 4‐fluorobenzonitrile] | 64.2 | 90.9 ± 7.5 | – | ΔTm at 1000 µM (TbINO1; [4]): 0.1 ± 0.08 °C
22 | CCc1cccc(C)n1 [compound 52, 2‐ethyl‐6‐methylpyridine] | 70.8 | 89.7 ± 9.7 | 0.4 ± 0.08 | –
23 | Cc1noc(C)c1C#N [compound 53, 3,5‐dimethyl‐4‐isoxazolecarbonitrile] | 84.5 | 89.3 ± 2.8 | 0.52 ± 0.09 | –
24 | CNCc1ccncc1 [compound 56, N‐methyl‐N‐(4‐pyridinylmethyl)amine] | 78.5 | 87.9 ± 9.9 | 0.01 ± 0.08 | –
25 | COc1cccc(N)c1 [compound 61, 3‐methoxyaniline] | 69.2 | 48.7 ± 8.9 | – | ΔTm at 1000 µM (TbINO1; [4]): 0.19 ± 0.07 °C
26 | Cc1ccc(O)c(C)n1 [compound 64, 2,6‐dimethylpyridin‐3‐ol] | 80.6 | 103 ± 13.2 | 0.13 ± 0.07 | –
27 | COc1ncccc1N [compound 65, 2‐methoxypyridin‐3‐amine] | 75.4 | 66.6 ± 18.7 | 1.46 ± 0.07 | –
28 | Nc1ccc(CO)cn1 [compound 66, (6‐amino‐3‐pyridinyl)methanol] | 85.1 | 80.3 ± 9.7 | 0.24 ± 0.09 | –
29 | Cc1nc(C#N)cs1 [compound 67, 2‐methyl‐1,3‐thiazole‐4‐carbonitrile] | 89.7 | 96.1 ± 9.2 | 0.01 ± 0.07 | –
30 | Cc1nn(C)c(C)c1N [compound 72, 1,3,5‐trimethyl‐1H‐pyrazol‐4‐amine] | 70.9 | 78.5 ± 0.8 | 1.19 ± 0.08 | –
31 | Cc1occc(=O)c1O [compound 74, 3‐hydroxy‐2‐methyl‐4H‐pyran‐4‐one] | 105 | 107 ± 10.5 | 1.13 ± 0.08 | –
32 | Cc1occc1C(=O)O [compound 75, 2-methyl-3-furoic acid] | 110 | 63.3 ± 5.9 | – | viability at 500 µM (HeLa cells; [3]): 63.3 ± 5.9%; ΔTm at 1000 µM (TbINO1; read-out: TbIno1 Tm shift [°C]): 3.89 ± 0.07 °C
33 | Cc1cc(CO)nn1C [compound 76, (1,5‐dimethyl‐1H‐pyrazol‐3‐yl)methanol] | 100 | 99.6 ± 4.5 | 0.56 ± 0.08 | –
34 | Cc1nc(CO)c(C)o1 [compound 78, (2,5‐dimethyl‐1,3‐oxazol‐4‐yl)methanol] | 110 | 92.7 ± 11.5 | 0.13 ± 0.08 | –
35 | NCCc1cccs1 [compound 81, 2‐(2‐thienyl)ethylamine] | 119 | 117 ± 8.9 | – | ΔTm at 1000 µM (TbINO1; [4]): 0.09 ± 0.07 °C
36 | CCCc1nccs1 [compound 82, 2‐propyl‐1,3‐thiazole] | 114 | 96.8 ± 11 | 0.22 ± 0.07 | –
37 | Cc1ccsc1CN [compound 83, (3‐methyl‐2‐thienyl)methylamine] | 124 | 95.4 ± 10 | 0.43 ± 0.06 | –
38 | CCC1CCC(N)CC1 (stereo not shown) [compound 84, 4‐ethylcyclohexanamine] | 118 | 90.7 ± 14.2 | 0.44 ± 0.06 | –
